In patent US11427548B2 (Arvinas Operations, Inc., priority 2015, dated 2022):
Read-outs that look alike come from different tables or passages of the source.

Target: T1, Androgen Receptor (Homo sapiens, UniProt P10275)
T1 construct: endogenous in cells; host or cells: VCaP cells
T1 sequence (P10275 1-920): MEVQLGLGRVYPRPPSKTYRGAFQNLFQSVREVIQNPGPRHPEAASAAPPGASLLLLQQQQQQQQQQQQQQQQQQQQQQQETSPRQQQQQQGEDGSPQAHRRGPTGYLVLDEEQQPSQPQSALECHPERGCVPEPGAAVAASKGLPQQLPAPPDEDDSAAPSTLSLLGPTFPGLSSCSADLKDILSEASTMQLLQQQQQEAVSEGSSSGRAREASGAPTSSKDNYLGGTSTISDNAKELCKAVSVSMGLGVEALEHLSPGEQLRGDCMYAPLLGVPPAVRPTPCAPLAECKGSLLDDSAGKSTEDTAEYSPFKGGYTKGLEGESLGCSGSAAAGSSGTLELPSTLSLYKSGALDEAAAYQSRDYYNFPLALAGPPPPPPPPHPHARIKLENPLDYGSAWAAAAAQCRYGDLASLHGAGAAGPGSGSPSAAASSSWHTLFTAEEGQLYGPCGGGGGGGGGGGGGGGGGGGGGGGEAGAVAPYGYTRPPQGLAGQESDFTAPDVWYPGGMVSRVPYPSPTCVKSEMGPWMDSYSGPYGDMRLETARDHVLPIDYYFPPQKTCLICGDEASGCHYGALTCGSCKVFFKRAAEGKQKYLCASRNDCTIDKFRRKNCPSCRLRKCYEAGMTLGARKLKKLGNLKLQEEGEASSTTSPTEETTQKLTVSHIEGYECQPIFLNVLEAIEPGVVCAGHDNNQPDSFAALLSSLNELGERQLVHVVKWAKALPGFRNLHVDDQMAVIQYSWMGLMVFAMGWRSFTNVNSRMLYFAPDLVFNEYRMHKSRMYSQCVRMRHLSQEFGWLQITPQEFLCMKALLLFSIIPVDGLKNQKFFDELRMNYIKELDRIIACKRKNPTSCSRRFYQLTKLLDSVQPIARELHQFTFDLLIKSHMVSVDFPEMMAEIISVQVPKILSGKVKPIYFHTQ
Experiment: Androgen Receptor ELISA assay (PathScan AR ELISA) in VCaP cells: AR degradation, Dmax and DC50
Type: cell-based
How it was run: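 After 24 h exposure of VCaP cells (charcoal-stripped serum, 0.1 nM R1881 agonist, 0.1% DMSO) to seven half-log compound concentrations, residual AR in lysates was measured by PathScan ELISA (TMB absorbance, 450 nm). Cells were plated at 30,000/well and grown at least 3 days beforehand.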

[1] = VCaP cells; Table 35; read-out: VCaP DC50
[2] = VCaP, VCaP cells; Table 35; read-out: VCaP Dmax (%)
[3] = VCaP cells; Table 36; read-out: VCaP DC50
[4] = read-out: VCaP DC50; VCaP cells; Table 34
[5] = VCaP, read-out: VCaP Dmax (%), VCaP cells; Table 36
[6] = VCaP, VCaP cells; Table 36; read-out: VCaP Dmax (%)

Structure (SMILES): CC(C)(C)[C@H](NC(=O)COCCCCCOc1ccc(C(=O)N[C@H]2C(C)(C)[C@H](Oc3ccc(C#N)c(Cl)c3)C2(C)C)cc1)C(=O)N1C[C@H](O)C[C@H]1C(=O)NCc1ccc(-c2cnco2)cc1 [Example 153, (2S,4R)-1-[(2S)-3,3-dimethyl-2-(2-{[5-(4-{[trans-3-(3-chloro-4-cyanophenoxy)-2,2,4,4-tetramethylcyclobutyl]carbamoyl}phen-oxy)pentyl]oxy}acetamido)butanoyl]-4-hydroxy-N-{[4-(1,3-oxazol-5-yl)phenyl]methyl}pyrrolidine-2-carboxamide]
- Dmax (VCaP, highest percentage of Androgen Receptor degradation observed, VCaP cells (Table 32); read-out: VCaP Dmax (%)): > 71%
- DC50 (concentration that caused 50% Androgen Receptor degradation, VCaP cells (Table 32); read-out: VCaP DC50): < 50 nM

Structure (SMILES): CC(C)(C)[C@H](NC(=O)COCCCCCNc1ccc(C(=O)N[C@H]2C(C)(C)[C@H](Oc3ccc(C#N)c(Cl)c3)C2(C)C)cc1)C(=O)N1C[C@H](O)C[C@H]1C(=O)NCc1ccc(-c2scnc2C#N)cc1 [Example 521]
- DC50 [1]: < 50 nM
- Dmax [2]: 51 to 70%

Structure (SMILES): Cc1ncsc1-c1ccc([C@H](C)NC(=O)[C@@H]2C[C@@H](O)CN2C(=O)[C@@H](NC(=O)CN2C[C@@H](C)N(CCCc3ccc(C(=O)N[C@H]4C(C)(C)[C@H](Oc5ccc(C#N)c(Cl)c5)C4(C)C)cc3)C[C@@H]2C)C(C)(C)C)cc1 [Example 817, (2S,4R)-1-((S)-2-(2-((2S,5R)-4-(3-(4-(((1r, 3R)-3-(3-chloro-4-cyanophenoxy)-2,2,4,4-tetramethylcyclobutyl)carbamoyl)phenyl)propyl)-2,5-dimethylpiperazin-1-yl)acetamido)-3,3-dimethylbutanoyl)-4-hydroxy-N-((S)-1-(4-(4-methylthiazol-5-yl)phenyl)ethyl) pyrrolidine-2-carboxamide]
- DC50 [3]: < 50 nM
- Dmax (VCaP, read-out: VCaP Dmax (%)): > 71%

Structure (SMILES): CC(C)(C)[C@H](NC(=O)COCCCCOCCCCOc1ccc(N2C(=S)N(c3ccc(C#N)c(Cl)c3)C(=O)C2(C)C)cc1)C(=O)N1C[C@H](O)C[C@H]1C(=O)NCc1ccc(-c2cnco2)cc1 [Example 346]
- Dmax (VCaP, read-out: VCaP Dmax (%)): 51 to 70%
- DC50 [4]: < 50 nM

Structure (SMILES): Cc1cc(O[C@H]2C(C)(C)[C@H](NC(=O)c3ccc(N4CCN(CCOCC(=O)N[C@H](C(=O)N5C[C@H](O)C[C@H]5C(=O)N[C@@H](C)c5ccc(-c6scnc6C)cc5)C(C)(C)C)CC4)nc3)C2(C)C)ccc1C#N [Example 680, N-((1r,3r)-3-(4-cyano-3-methylphenoxy)-2,2,4,4-tetramethylcyclobutyl)-6-(4-(2-(2-(((S)-1-((2S,4R)-4-hydroxy-2-(((S)-1-(4-(4-methylthiazol-5-yl)phenyl)ethyl)carbam-oyl)pyrrolidin-1-yl)-3,3-dimethyl-1-oxobutan-2-yl)amino)-2-oxoethoxy)ethyl)pipera-zin-1-yl)nicotinamide]
- DC50 [3]: < 50 nM
- Dmax [5]: > 71%

Structure (SMILES): Cc1ncsc1-c1ccc([C@H](C)NC(=O)[C@@H]2C[C@@H](O)CN2C(=O)[C@@H](NC(=O)COC[C@H](O)[C@@H](O)COc2ccc(-c3ccc(N4C(=S)N(c5ccc(C#N)c(C(F)(F)F)c5)C(=O)C4(C)C)cc3)cc2)C(C)(C)C)cc1 [Example 559]
- Dmax (VCaP, read-out: VCaP Dmax (%)): > 71%
- DC50 (read-out: VCaP DC50; VCaP cells; Table 35): < 50 nM

Structure (SMILES): Cc1ncsc1-c1ccc(CNC(=O)[C@@H]2C[C@@H](O)CN2C(=O)C(C(C)C)n2cccc(OCCCCOc3ccc(-c4ccc(N5C(=S)N(c6ccc(C#N)c(C(F)(F)F)c6)C(=O)C5(C)C)cc4)cc3)c2=O)cc1 (stereo partly drawn) [Example 395]
- Dmax (VCaP, read-out: VCaP Dmax (%)): < 25%

Structure (SMILES): Cc1ncoc1-c1ccc(CNC(=O)[C@@H]2C[C@@H](O)CN2C(=O)[C@@H](NC(=O)COCCCCOc2ccc(-c3ccc(N4C(=S)N(c5ccc(C#N)c(C(F)(F)F)c5)C(=O)C45CCC5)cc3)cc2)C(C)(C)C)cc1 [Example 119, (2S,4R)-1-[(2S)-2-(2-{4-[4-(4-{7-[4-cyano-3-(trifluoromethyl)phenyl]-8-oxo-6-sulfanylidene-5,7-diazaspiro[3.4]octan-5-yl}phenyl)phenoxy]butoxy}acetamido)-3,3-dimethylbutanoyl]-4-hydroxy-N-{[4-(4-methyl-1,3-oxazol-5-yl)phenyl]methyl}pyrrolidine-2-carboxamide]
- Dmax (VCaP, read-out: VCaP Dmax (%)): 51 to 70%
- DC50 (read-out: VCaP DC50; concentration that caused 50% Androgen Receptor degradation, VCaP cells (Table 32)): < 50 nM

Structure (SMILES): Cc1ncsc1-c1ccc(CNC(=O)[C@@H]2C[C@@H](O)CN2C(=O)C(NC(=O)COCCN2CCN(c3ccc(C(=O)N[C@H]4C(C)(C)[C@H](Oc5ccc(C#N)c(C(F)(F)F)c5)C4(C)C)cn3)C(=O)C2)C(C)(C)C)cc1 (stereo partly drawn) [Example 703]
- DC50 [3]: > 501 nM
- Dmax [6]: < 25%

Structure (SMILES): Cc1nccn1-c1ccc([C@H](C)NC(=O)C2C[C@@H](O)CN2C(=O)C(NC(=O)COCC2CCN(c3ccc(C(=O)N[C@H]4C(C)(C)[C@H](Oc5ccc(C#N)c(Cl)c5)C4(C)C)cn3)CC2)C(C)(C)C)cc1 (stereo partly drawn) [Example 606, N-((1r,3r)-3-(3-chloro-4-cyanophenoxy)-2,2,4,4-tetramethylcyclobutyl)-6-(4-((2-(((S)-1-((2S,4R)-4-hydroxy-2-(((S)-1-(4-(2-methyl-1H-imidazol-1-yl)phenyl)ethyl)carbam-oyl)pyrrolidin-1-yl)-3,3-dimethyl-1-oxobutan-2-yl)amino)-2-oxoethoxy)methyl)piper-idin-1-yl)nicotinamide]
- DC50 [3]: < 50 nM
- Dmax [6]: 51 to 70%

Structure (SMILES): Cc1ncsc1-c1ccc([C@H](C)NC(=O)[C@@H]2C[C@@H](O)CN2C(=O)[C@@H](NC(=O)COCCCCOCCCCOc2ccc(N3C(=S)N(c4ccc(C#N)c(C(F)(F)F)c4)C(=O)C3(C)C)cc2)C(C)(C)C)cc1 [Example 373]
- Dmax (VCaP, read-out: VCaP Dmax (%)): 51 to 70%
- DC50 [4]: < 50 nM

Structure (SMILES): CC(C)(C)[C@H](NC(=O)COCCN1CCN(c2ccc(C(=O)N[C@H]3C(C)(C)[C@H](Oc4ccc(C#N)c(Cl)c4)C3(C)C)cn2)CC1)C(=O)N1C[C@H](O)C[C@H]1C(=O)NCc1ccc(C2CC2)cc1 [Example 757, N-((1r,3r)-3-(3-chloro-4-cyanophenoxy)-2,2,4,4-tetramethylcyclobutyl)-6-(4-(2-(2-(((S)-1-((2S,4R)-2-((4-cyclopropylbenzyl)car-bamoyl)-4-hydroxypyrrolidin-1-yl)-3,3-dimethyl-1-oxobutan-2-yl)amino)-2-oxoethoxy)ethyl)pipera-zin-1-yl)nicotinamide]
- DC50 [3]: > 501 nM
- Dmax [6]: 26 to 50%

Structure (SMILES): Cc1ncoc1-c1ccc(CNC(=O)[C@@H]2C[C@@H](O)CN2C(=O)[C@@H](NC(=O)COCCCOCCCCOc2ccc(N3C(=S)N(c4cnc(C#N)c(Cl)c4)C(=O)C3(C)C)cc2)C(C)(C)C)cc1 [Example 338]
- DC50 (VCaP cells; Table 34; read-out: VCaP DC50): < 50 nM
- Dmax (VCaP, VCaP cells; Table 34; read-out: VCaP Dmax (%)): 51 to 70%

Structure (SMILES): Cc1ncsc1-c1ccc([C@H](C)NC(=O)[C@H]2C[C@@H](O)CN2C(=O)[C@@H](NC(=O)COCCCCCNc2ccc(C(=O)N[C@H]3C(C)(C)[C@H](Oc4ccc(C#N)c(Cl)c4)C3(C)C)cc2)C(C)(C)C)cc1 [Example 458]
- DC50 [1]: > 501 nM
- Dmax [2]: < 25%

Structure (SMILES): Cc1ncsc1-c1ccc([C@H](C)NC(=O)[C@@H]2C[C@@H](O)CN2C(=O)[C@@H](NC(=O)COCCN2CCN(c3ccc(C(=O)N[C@H]4CC(Oc5ccc(C#N)c(Cl)c5)C4(C)C)cn3)CC2)C(C)(C)C)cc1 (stereo partly drawn) [Example 849, N-((1S)-3-(3-chloro-4-cyanophenoxy)-2,2-dimethylcyclobutyl)-6-(4-(2-(2-(((S)-1-((2S, 4R)-4-hydroxy-2-(((S)-1-(4-(4-methylthiazol-5-yl)phenyl)ethyl)carbamoyl)pyrrolidin-1-yl)-3,3-dimethyl-1-oxobutan-2-yl)amino)-2-oxoethoxy)ethyl)piperazin-1-yl)nicotinamide]
- DC50 [3]: < 50 nM
- Dmax [6]: 51 to 70%

Structure (SMILES): Cc1ncsc1-c1ccc([C@H](C)NC(=O)[C@@H]2C[C@@H](O)CN2C(=O)[C@@H](NC(=O)CN2CCN(CCCOCc3cc(C(=O)N[C@@H](C)Cn4ccc(-c5ccc(C#N)c(C(F)(F)F)c5)n4)n[nH]3)CC2)C(C)(C)C)cc1 [Example 766]
- DC50 [3]: > 501 nM
- Dmax [6]: 26 to 50%

Structure (SMILES): CC(C)C[C@H](OCCN1CCN(c2ccc(C(=O)N[C@H]3C(C)(C)[C@H](Oc4ccc(C#N)c(Cl)c4)C3(C)C)cn2)CC1)C(=O)N[C@@H](C)C(=O)N1C[C@H](O)C[C@H]1C(=O)NCc1ccc(Cl)cc1 [Example 722, N-((1r,3r)-3-(3-chloro-4-cyanophenoxy)-2,2,4,4-tetramethylcyclobutyl)-6-(4-(2-(((S)-1-(((S)-1-((2S,4R)-2-((4-chlorobenzyl)carbamoyl)-4-hydroxypyrrolidin-1-yl)-1-oxopropan-2-yl)amino)-4-methyl-1-oxopentan-2-yl)oxy)ethyl)piperazin-1-yl)nicotinamide]
- DC50 [3]: > 501 nM
- Dmax [5]: < 25%
